Laboratory results: publication PMC6615598, “Novel antibiotics effective against gram-positive and -negative multi-resistant bacteria with limited resistance” (PLoS Biology, 2019)
Starred links: 1 amine or outer side, 2 acyl side, 3 side chain; linkers in the order of their positions; H or OH if unused. Non-standard residues stand in square brackets, D forms with d. Residues, ends and D or L forms follow the SMILES beside them. azaβ3(1Nal) = O=C(CN(Cc1cccc2ccccc12)N[*:1])[*:2]

Key:
[1] = test system: S. aureus N315 (MRSA); test: microbe, parasite or virus in culture; details: N315
Method: (§1) (10−4 M final concentrations). At selected time intervals, 100 μl of reaction mixture was collected, quenched by 200 μl 95% EtOH, and adjusted at pH 2 to prevent peptide adsorption to serum proteins. […] Supernatants were analyzed by RP-HPLC on an Xbridge C18 column with a linear gradient of water, 0.08% TFA, and acetonitrile with 1% TFA. HPLC peak areas were used to calculate the percentages of intact compound remaining at the various time points. MIC and MBC values were determined in triplicate in many ESKAPE clinical isolates, including a dozen MDR S. aureus, by the broth microdilution method. Peptidomimetics and antibiotics were assayed in a concentration range of 1 to 128 μM. The bacterial inoculum (5 × 10^5 colony-forming units [CFUs]/well) was prepared in MHB or CAMHB (150 μl). A Biotek Synergy 2 spectrophotometer was used to record the results after 18–20 h incubation at 35°C (±2°C). […] After every hour of culture for 4 h, serial dilutions were plated on BHI plates and incubated overnight at 37°C, and then the CFUs were counted and expressed as log CFU/ml. Phosphate-buffered saline (PBS)-exposed S. aureus MRSA was included as a control.

[2] = test system: S. aureus Newman; test: microbe, parasite or virus in culture; details: Newman
Method: as §1

[3] = test system: S. aureus Mu3 (MRSA); test: microbe, parasite or virus in culture; details: Mu3
Method: as §1

[4] = test system: P. aeruginosa 15643; test: microbe, parasite or virus in culture
Method: (§2) For 15 d in MHB, MICs were determined daily for each pseudopeptide and their antibiotic controls. This was done using cells from the well in which the compound concentration was one-half of the MIC (1/2MIC). For each compound, the 1/2MIC well from the previous day’s MIC assay plate was re-suspended and the bacteria grown to a density of about 10^8 cells ml−1. The suspension was diluted in MHB or CAMHB (10^6 cells/ml) and then used to determine the MIC of the same compound determined by micro broth dilution. All MIC measurements were performed in duplicate. Aliquots of the 5 × 10^4 cell/ml dilutions for each 1/2MIC well were periodically plated on MHB and incubated at 35°C for 18 h to verify cell density by colony counts and for visual inspection of colony phenotypes. To control compound stability, peptide solution MICs were determined during and at the end of the 15 d and were compared to cells unexposed to antibiotics. In vivo resistance was also assessed in treated mice (1.5 mg.kg^−1) for 4 d (sepsis) or 6 d (skin abscesses). […] The broth microdilution method was performed as per EUCAST recommendations on 5 independent colonies per mouse (3 mice per set, 15 colonies per drug tested). For severe sepsis and subcutaneous abscesses, in vivo resistance was determined by plating aliquots of crude kidney extracts or abscesses on plates containing 1-, 2-, 4-, or 8-fold the peptide MICs 7 or 3 d post infections, respectively.

[5] = test system: MSSA (Newman); test: microbe, parasite or virus in culture; details: MSSA (Newman)
Method: as §2

[6] = test system: E. coli MCR1; test: microbe, parasite or virus in culture
Method: as §2

[7] = test system: E. coli K12; test: microbe, parasite or virus in culture
Method: as §2

[8] = test system: MRSA (Mu3); test: microbe, parasite or virus in culture; details: MRSA (Mu3)
Method: as §2

[9] = test system: E. coli 13090; test: microbe, parasite or virus in culture
Method: as §2

[10] = Stability in human serum (half-life); format: in vitro ADME; details: 25% human serum, pre-incubated 15 min at 37°C, peptide 10^−4 M, RP-HPLC peak areas, mean of biological triplicates
Method: as §1
Supplementary file pbio.3000337.s013.docx: S7 Table Peptide half-lives in human and mouse sera. […] Peptide amounts and half-lives were determined by HPLC. Experiments were conducted on 25% human or mouse sera. Values are shown in minutes. The mean values correspond to biological triplicates. HPLC, high pressure liquid chromatography. (DOCX) Click here for additional data file.

[11] = test system: S. aureus 702697 HOU; test: microbe, parasite or virus in culture
Method: as §1
(§3) Supplementary file pbio.3000337.s007.docx: S1 Table Antibacterial activity of the 4 peptidomimetics focusing on 9 S. aureus MDR clinical isolates. Clinical isolates BCB/POE and 740404 DUN are from human sepsis. The other strains are from catheter infections or suppurating wounds. Brilacidin was used as a control. MDR, multidrug resistant. (DOCX) Click here for additional data file.

[12] = test system: S. aureus 66534 E; test: microbe, parasite or virus in culture
Method: as §1, §3

[13] = test system: S. aureus ROUS; test: microbe, parasite or virus in culture
Method: as §1, §3

[14] = test system: S. aureus 740404 DUN; test: microbe, parasite or virus in culture
Method: as §1, §3

[15] = test system: S. aureus BCB/POE; test: microbe, parasite or virus in culture
Method: as §1, §3

[16] = test system: S. aureus PM64; test: microbe, parasite or virus in culture
Method: as §1, §3

[17] = test system: S. aureus COB; test: microbe, parasite or virus in culture
Method: as §1, §3

[18] = test system: S. aureus FORT; test: microbe, parasite or virus in culture
Method: as §1, §3

[19] = test system: MRSA; test: Membrane permeation, SYTO Green fluorescence; format: cell-based, S. aureus
Method: Permeation assays were also performed on gram-positive S. aureus membranes (MSSA and MRSA) by fluorescence assay [31] with SYTO Green nucleic acid stain (Life Technologies) in black flat-bottom 96-well microtiter plates (Greiner) in biological triplicate. Bacteria were grown to 0.3–0.4 OD600 in CAMHB at 37°C and centrifuged at 3,500 tr/min for 10 min. The pellet was washed and dissolved in PBS to an absorbance of 0.4 at 600 nm (approximately 2.10^8 CFU/ml). SYTO Green was added to the cells at a 5 μM final concentration, with dark incubation for 30 min. The amount of 50 μL of bacteria/SYTO Green mixture was added to each well containing compounds serially diluted in PBS, and fluorescence was measured at 37°C for up to 12 h using a spectrophotometer (BIOTEK, Tungsten-Halogen Lamp) with 485 nm excitation and 525 nm emission wavelengths.

[20] = test system: MRSA; test: In vivo resistance: kidney extracts plated on plates containing 1- to 8-fold peptide MIC (severe sepsis); format: cell-based, S. aureus; details: kidneys at day 7 after repeated treatments, plates with drug at 2-fold MIC
Method: For 15 d in MHB, MICs were determined daily for each pseudopeptide and their antibiotic controls. This was done using cells from the well in which the compound concentration was one-half of the MIC (1/2MIC). For each compound, the 1/2MIC well from the previous day’s MIC assay plate was re-suspended and the bacteria grown to a density of about 10^8 cells ml−1. The suspension was diluted in MHB or CAMHB (10^6 cells/ml) and then used to determine the MIC of the same compound determined by micro broth dilution. All MIC measurements were performed in duplicate. Aliquots of the 5 × 10^4 cell/ml dilutions for each 1/2MIC well were periodically plated on MHB and incubated at 35°C for 18 h to verify cell density by colony counts and for visual inspection of colony phenotypes. To control compound stability, peptide solution MICs were determined during and at the end of the 15 d and were compared to cells unexposed to antibiotics. In vivo resistance was also assessed in treated mice (1.5 mg.kg^−1) for 4 d (sepsis) or 6 d (skin abscesses). […] For severe sepsis and subcutaneous abscesses, in vivo resistance was determined by plating aliquots of crude kidney extracts or abscesses on plates containing 1-, 2-, 4-, or 8-fold the peptide MICs 7 or 3 d post infections, respectively.

[21] = test system: P. aeruginosa LESB58; details: LESB58
Method: as §1, with “μM.” for “μM. The bacterial inoculum (5 × 10^5 colony-forming units [CFUs]/well) was prepared in MHB or CAMHB (150 μl). A Biotek Synergy 2 spectrophotometer was used to record the results after 18–20 h incubation at 35°C (±2°C).”, “Phosphate-buffered saline (PBS)-exposed S. aureus MRSA was included as a control.” left out
For 15 d in MHB, MICs were determined daily for each pseudopeptide and their antibiotic controls. […] The suspension was diluted in MHB or CAMHB (10^6 cells/ml) and then used to determine the MIC of the same compound determined by micro broth dilution. […] To control compound stability, peptide solution MICs were determined during and at the end of the 15 d and were compared to cells unexposed to antibiotics. In vivo resistance was also assessed in treated mice (1.5 mg.kg^−1) for 4 d (sepsis) or 6 d (skin abscesses). […]

[22] = P. aeruginosa 15643, d0 of serial passages
[23] = P. aeruginosa 15643, d14 of serial passages at sub-MIC
[24] = d14 of serial passages at sub-MIC
[25] = E. coli MCR1, d0 of serial passages
[26] = E. coli MCR1, d14 of serial passages at sub-MIC
[27] = E. coli K12, d0 of serial passages
[28] = E. coli K12, d14 of serial passages at sub-MIC
[29] = E. coli 13090, d0 of serial passages
[30] = E. coli 13090, d14 of serial passages at sub-MIC

| SMILES | MIC [1] | MIC [2] | MIC [3] | MIC [4, 22] | MIC [4, 23] | MIC ([5]; d0 of serial passages) | MIC [5, 24] | MIC [6, 25] | MIC [6, 26] | MIC [7, 27] | MIC [7, 28] | MIC [8, 24] | MIC [9, 29] | MIC [9, 30] | half-life [10] [h] | further results |
| --- | --- | --- | --- | --- | --- | --- | --- | --- | --- | --- | --- | --- | --- | --- | --- | --- |
| CC(C)[C@@H]1NC(=O)[C@H](CCCNC(=N)N)NC(=O)[C@H](CCCNC(=N)N)NC(=O)[C@H](Cc2c[nH]c3ccccc23)NC(=O)[C@H](Cc2ccccc2)NC(=O)[C@H](Cc2ccccc2)NC(=O)[C@H](CCCCN)NC1=O [Pep18] (cyclo(FFWRRVK)) | 8 (8.2) μM | 16 (16.4) μM | 8 (8.2) μM | 16 (16.4) μM | 16 (16.4) μM | 16 (16.4) μM | 64 (65.6) μM | 16 (16.4) μM | 64 (65.6) μM | 16 (16.4) μM | 64 (65.6) μM | 16 (16.4) μM | 16 (16.4) μM | 64 (65.6) μM | 16.3 ± 1.67 | MIC ([11]; MDR S. aureus clinical isolate 702697 HOU): 16 mg/L^-1; MIC ([12]; MDR S. aureus clinical isolate 66534 E): 32 mg/L^-1; MIC ([13]; MDR S. aureus clinical isolate ROUS): 8 mg/L^-1; MIC ([14]; MDR S. aureus clinical isolate 740404 DUN, human sepsis): 32 mg/L^-1; MIC ([15]; MDR S. aureus clinical isolate BCB/POE, human sepsis): 32 mg/L^-1; MIC ([16]; MDR S. aureus clinical isolate PM64): 32 mg/L^-1; MIC ([17]; MDR S. aureus clinical isolate COB): 32 mg/L^-1; MIC ([18]; MDR S. aureus clinical isolate FORT): >32 mg/L^-1 |
| CC(C)[C@@H]1NC(=O)[C@H](CCCNC(=N)N)NC(=O)[C@H](CCCNC(=N)N)NC(=O)CN(Cc2cccc3ccccc23)NC(=O)[C@H](Cc2ccccc2)NC(=O)CN(Cc2cccc3ccccc23)NC(=O)[C@H](CCCCN)NC1=O [Pep19] (cyclo([azaβ3(1Nal)]F[azaβ3(1Nal)]RRVK)) | 4 (4.5) μM | 4 (4.5) μM | 4 (4.5) μM | 8 (8.8) μM | 16 (16.2) μM | 4 (4.4) μM | 4 (4.4) μM | 8 (8.8) μM | 8 (8.8) μM | 4 (4.4) μM | 8 (8.8) μM | 8 (8.8) μM | 8 (8.8) μM | 8 (8.8) μM | 24.2 ± 4.33 | MIC ([8]; d0 of serial passages): 4 (4.4) μM; Membrane permeation (leakage) [19]: most active; Clones with increased resistance from kidneys [20]: no clones with increased resistances were detected; MIC ([11]; 702697 HOU): 4 mg/L^-1; MIC ([12]; 66534 E): 2 mg/L^-1; MIC ([13]; ROUS): 2 mg/L^-1; MIC ([14]; 740404 DUN): 8 mg/L^-1; MIC ([15]; BCB/POE): 8 mg/L^-1; MIC ([16]; PM64): 8 mg/L^-1; MIC ([17]; COB): 2 mg/L^-1; MIC ([18]; FORT): 8 mg/L^-1; MIC [21]: 4 µM |
